Experimental data from ChEMBL document CHEMBL1201862, “PubChem BioAssay data set” (2004).
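Results reflect a 48-hour exposure of cells in 96-well plates to compound at five concentrations. At the GI50, growth is halved.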 Calls of active or inactive are those of the source. No stated cut-off is given here; in the data, active = GI50 up to about 1.1 µM and inactive = higher.

Tests used:
Assay in all cases: NCI-60 cell line screen, 48 h
786-0 = test system: 786-0
OVCAR-8 = test system: OVCAR-8
BT-549 = test system: BT-549
A549 = test system: A549
DU-145 = test system: DU-145
CCRF-CEM = test system: CCRF-CEM
SK-MEL-2 = test system: SK-MEL-2
MDA-MB-231 = test system: MDA-MB-231
ACHN = test system: ACHN
SR = test system: SR
MDA-N = test system: MDA-N
OVCAR-5 = test system: OVCAR-5
Hs-578T = test system: Hs-578T
M14 = test system: M14
SW-620 = test system: SW-620
COLO 205 = test system: COLO 205
NCI-H23 = test system: NCI-H23
KM12 = test system: KM12

Compound	GI50 (786-0)	GI50 (OVCAR-8)	GI50 (BT-549)	GI50 (A549)	GI50 (DU-145)	GI50 (CCRF-CEM)	GI50 (SK-MEL-2)	GI50 (MDA-MB-231)	GI50 (ACHN)	GI50 (SR)	GI50 (MDA-N)	GI50 (OVCAR-5)	GI50 (Hs-578T)	GI50 (M14)	GI50 (SW-620)	GI50 (COLO 205)	GI50 (NCI-H23)	GI50 (KM12)
CC1=C(C#N)c2nc3ccccc3n2C(=O)C1(C)CCO (stereo not drawn)	> 100 µM (inactive)	> 100 µM (inactive)	> 100 µM (inactive)	> 100 µM (inactive)	> 100 µM (inactive)	> 100 µM (inactive)	> 100 µM (inactive)	> 100 µM (inactive)	> 100 µM (inactive)	24.3 µM (inactive)	> 100 µM (inactive)	> 100 µM (inactive)	> 100 µM (inactive)	> 100 µM (inactive)	> 100 µM (inactive)	> 100 µM (inactive)	> 100 µM (inactive)	–
COc1ccc(C(=O)N=C2N(c3ccccc3)C(=N/c3ccccc3)/C(=N\c3ccccc3)N2c2ccccc2)cc1	17.9 µM (inactive)	20 µM (inactive)	13.2 µM (inactive)	30.3 µM (inactive)	> 100 µM (inactive)	> 100 µM (inactive)	21.3 µM (inactive)	> 62.8 µM (inactive)	22.5 µM (inactive)	> 100 µM (inactive)	19.2 µM (inactive)	> 75.7 µM (inactive)	7.78 µM (inactive)	8.22 µM (inactive)	99.8 µM (inactive)	> 100 µM (inactive)	39.3 µM (inactive)	> 61.2 µM (inactive)
CN(C)/C=C/c1nnnn1-c1ccc(I)cc1	35.1 µM (inactive)	19.5 µM (inactive)	22.8 µM (inactive)	> 100 µM (inactive)	28.2 µM (inactive)	10.6 µM (inactive)	–	16.6 µM (inactive)	22 µM (inactive)	16.4 µM (inactive)	22.4 µM (inactive)	23.7 µM (inactive)	13.6 µM (inactive)	14.3 µM (inactive)	15.3 µM (inactive)	> 100 µM (inactive)	24.7 µM (inactive)	18.5 µM (inactive)
O=C(Nc1ccccc1)N1CC(CN2CCN(c3ccccc3)CC2)OC1=O (stereo not drawn)	> 100 µM (inactive)	–	> 100 µM (inactive)	> 100 µM (inactive)	> 100 µM (inactive)	> 100 µM (inactive)	> 100 µM (inactive)	> 100 µM (inactive)	> 100 µM (inactive)	> 100 µM (inactive)	> 100 µM (inactive)	> 100 µM (inactive)	67 µM (inactive)	> 100 µM (inactive)	> 100 µM (inactive)	> 100 µM (inactive)	> 100 µM (inactive)	> 100 µM (inactive)
NC(CO)C(=O)NCC(=O)O (stereo not drawn)	> 100 µM (inactive)	> 100 µM (inactive)	> 100 µM (inactive)	> 100 µM (inactive)	> 100 µM (inactive)	> 100 µM (inactive)	> 100 µM (inactive)	> 100 µM (inactive)	> 100 µM (inactive)	> 100 µM (inactive)	> 100 µM (inactive)	> 100 µM (inactive)	> 100 µM (inactive)	> 100 µM (inactive)	> 100 µM (inactive)	> 100 µM (inactive)	> 100 µM (inactive)	> 100 µM (inactive)
O=c1c2cccnc2[nH]c2ccc3cn[nH]c3c12	> 10 µM (inactive)	6.76 µM (inactive)	> 10 µM (inactive)	> 10 µM (inactive)	> 10 µM (inactive)	6.15 µM (inactive)	> 10 µM (inactive)	8.53 µM (inactive)	3.97 µM (inactive)	3.29 µM (inactive)	> 10 µM (inactive)	> 10 µM (inactive)	6.21 µM (inactive)	7.14 µM (inactive)	> 10 µM (inactive)	> 10 µM (inactive)	> 10 µM (inactive)	5.05 µM (inactive)
O=C(O)CCS/C(=C\C(SCCC(=O)O)c1ccc(Cl)cc1)c1ccc(Cl)cc1 (stereo not drawn)	78.9 µM (inactive)	53.5 µM (inactive)	30.5 µM (inactive)	57.1 µM (inactive)	57.9 µM (inactive)	30.1 µM (inactive)	26.5 µM (inactive)	71.4 µM (inactive)	46.3 µM (inactive)	29.4 µM (inactive)	36.6 µM (inactive)	> 100 µM (inactive)	63.5 µM (inactive)	47.9 µM (inactive)	28.1 µM (inactive)	21.4 µM (inactive)	42.5 µM (inactive)	25.6 µM (inactive)
CCCCCC(/C=C/[C@@H]1CC(=O)C[C@H]1O[Si](C)(C)C(C)(C)C)OCOCCOC (stereo partly drawn)	3.74 µM (inactive)	4.23 µM (inactive)	3.26 µM (inactive)	9.55 µM (inactive)	16.3 µM (inactive)	> 100 µM (inactive)	4.22 µM (inactive)	4.48 µM (inactive)	2.96 µM (inactive)	1.5 µM (inactive)	3.41 µM (inactive)	10 µM (inactive)	2.9 µM (inactive)	4.04 µM (inactive)	2.96 µM (inactive)	5.2 µM (inactive)	3.56 µM (inactive)	3 µM (inactive)
O=C(O)CNCCc1ccccc1	> 100 µM (inactive)	> 100 µM (inactive)	> 100 µM (inactive)	> 100 µM (inactive)	> 100 µM (inactive)	> 100 µM (inactive)	> 100 µM (inactive)	> 100 µM (inactive)	> 100 µM (inactive)	> 100 µM (inactive)	> 100 µM (inactive)	> 100 µM (inactive)	> 100 µM (inactive)	> 100 µM (inactive)	> 100 µM (inactive)	> 100 µM (inactive)	> 100 µM (inactive)	> 100 µM (inactive)
c1ccc2c(c1)[nH]c1c2cc[n+]2cc3c(cc12)CCCC3	2.28 µM (inactive)	2.42 µM (inactive)	2.76 µM (inactive)	6.93 µM (inactive)	2.69 µM (inactive)	–	1.63 µM (inactive)	2 µM (inactive)	3.75 µM (inactive)	1.75 µM (inactive)	1.57 µM (inactive)	2.45 µM (inactive)	3.87 µM (inactive)	2.3 µM (inactive)	2.1 µM (inactive)	0.38 µM (active)	2.24 µM (inactive)	1.7 µM (inactive)
CSc1c(C#N)c(=O)n(N)c2[nH]nc(C)c12	> 100 µM (inactive)	> 100 µM (inactive)	> 100 µM (inactive)	> 100 µM (inactive)	> 100 µM (inactive)	> 100 µM (inactive)	> 100 µM (inactive)	> 100 µM (inactive)	–	> 100 µM (inactive)	> 100 µM (inactive)	–	> 100 µM (inactive)	–	> 100 µM (inactive)	> 100 µM (inactive)	> 100 µM (inactive)	> 100 µM (inactive)
COc1ccc(C[C@@H]2OC3(C=CC(=O)CC3Sc3ccccc3)O[C@H]2Cc2ccc(OC)cc2)cc1 (stereo partly drawn)	0.151 µM (active)	0.29 µM (active)	0.223 µM (active)	3.23 µM (inactive)	2.23 µM (inactive)	0.216 µM (active)	1.53 µM (inactive)	2.5 µM (inactive)	1.36 µM (inactive)	0.187 µM (active)	1.52 µM (inactive)	1.14 µM (inactive)	1.41 µM (inactive)	1.16 µM (inactive)	0.303 µM (active)	1.85 µM (inactive)	1.71 µM (inactive)	2.11 µM (inactive)
O=S(=O)(O)c1ccc2c(/N=N/c3ccc(Sc4ccc(/N=N/c5c(O)ccc6cc(S(=O)(=O)O)ccc56)cc4)cc3)c(O)ccc2c1	> 100 µM (inactive)	> 100 µM (inactive)	> 100 µM (inactive)	> 100 µM (inactive)	> 100 µM (inactive)	> 100 µM (inactive)	> 100 µM (inactive)	> 100 µM (inactive)	> 100 µM (inactive)	> 100 µM (inactive)	> 100 µM (inactive)	> 100 µM (inactive)	> 100 µM (inactive)	> 100 µM (inactive)	> 100 µM (inactive)	> 100 µM (inactive)	> 100 µM (inactive)	> 100 µM (inactive)
CCc1nc(N)c2nc(-c3ccc(C#N)cc3)oc2n1	> 100 µM (inactive)	> 100 µM (inactive)	> 100 µM (inactive)	> 100 µM (inactive)	> 100 µM (inactive)	> 100 µM (inactive)	> 100 µM (inactive)	> 100 µM (inactive)	> 100 µM (inactive)	> 100 µM (inactive)	> 100 µM (inactive)	> 100 µM (inactive)	> 100 µM (inactive)	> 100 µM (inactive)	> 100 µM (inactive)	> 100 µM (inactive)	> 100 µM (inactive)	> 100 µM (inactive)
COc1ccc(-c2c(C(C)=O)c(C)n(C3OC(CO)C(O)C(O)C3O)c(=S)c2C#N)cc1 (stereo not drawn)	–	58.2 µM (inactive)	> 100 µM (inactive)	> 100 µM (inactive)	> 100 µM (inactive)	38.3 µM (inactive)	–	> 100 µM (inactive)	80.2 µM (inactive)	48.8 µM (inactive)	71.6 µM (inactive)	> 100 µM (inactive)	98.2 µM (inactive)	60.1 µM (inactive)	78.5 µM (inactive)	> 100 µM (inactive)	68.1 µM (inactive)	90.6 µM (inactive)
NC(CCCCCP(=O)(c1ccccc1)C1C=CC=CC1)C(=O)O (stereo not drawn)	–	> 100 µM (inactive)	> 100 µM (inactive)	> 100 µM (inactive)	> 100 µM (inactive)	> 100 µM (inactive)	> 100 µM (inactive)	> 100 µM (inactive)	> 100 µM (inactive)	> 100 µM (inactive)	> 100 µM (inactive)	> 100 µM (inactive)	> 100 µM (inactive)	> 100 µM (inactive)	> 100 µM (inactive)	> 100 µM (inactive)	> 100 µM (inactive)	> 100 µM (inactive)
